# “And” between values parts separate entries of the source, which are not always exact repeats. Equal entries are not always repeated. Where two headings read alike, the source gives them in different places.
# Experiments:
# Staphylococcus aureus = assay: MIC, microbroth dilution; assay type: cell-based
# Acinetobacter baumannii = assay: MIC, microbroth dilution; assay type: cell-based
# Pseudomonas aeruginosa = assay: MIC, microbroth dilution; assay type: cell-based
# [1] = Liver microsome stability, murine; assay type: in vitro ADME, mouse; settings: for half-life: mouse, read-out: MMS / Microsomal Stability (t1/2), murine; for half-life / Average MLMS t½ / MLMS t½: murine liver microsomes; for Average MLMS t½: average of replicates; for MLMS t½: individual replicates
# Procedure, shortened: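 Compounds incubated with liver microsomes plus NADPH over 30 min; parent remaining quantified by reverse-phase LC/MS. Half-life from linear regression over several time points.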
# Klebsiella pneumoniae = assay: MIC, microbroth dilution; assay type: cell-based
# [2] = Aqueous solubility (nephelometric); assay type: physicochemical; settings: aqueous solution (buffer not named); single replicates
# trans-translation = assay: In vitro trans-translation assay (S12 extract, nanoluc-ns, tmRNA-nl); assay type: biochemical, Escherichia coli; set-up: background subtraction: unit not given here; settings: for normalized: activity, 0 = 100; for IC50: in vitro reconstituted assay
# Excerpt: The in vitro trans-translation assay is designed to produce the first 157 amino acids of nano-luciferase from a non-stop mRNA (nanoluc-ns) and add the C-terminal peptide […] via a mutant version of E. coli tmRNA (tmRNA-nl) to reconstitute an active nano-luciferase[45]. In this assay, the tagged nano-luciferase gene has >30,000-fold increase in activity over the peptide made in the absence of tmRNA-nl.
# S12 lysates were made according to the procedure of Kim, et al.[46]. Briefly, a culture of E. coli BL21 (DE3) cells containing a pET28 plasmid carrying the E. coli T7 polymerase gene was grown at 37 °C to an OD600 = 0.8, induced with 1 mM IPTG and grown for an additional 3 h. Cells were harvested by centrifugation at 20,000 × g for 10 min at 4 °C and the pellet was resuspended in buffer A (20 mM Tris-acetate (pH 8.2), 14 mM Mg(OAc)2, 60 mM potassium glutamate, 1 mM DTT). Cells were lysed by sonication, the lysate was clarified by centrifugation at 12,000 × g for 10 min, and the supernatant was stored at −80 °C.
# E. coli SmpB was purified as previously described. tmRNA-nl, a variant of E. coli tmRNA encoding the final 11 residues of nano-luciferase, was transcribed from the tmRNA-nl synthetic DNA sequence in vitro, purified, and folded as previously described for wild-type E. coli tmRNA[3]. The nanoluc-stop template DNA was prepared as previously described[3] by PCR amplification from pMC1 using T7 universal and nanoluc-stop primers. The nanoluc-ns was prepared in a similar manner using pMC1 with T7 universal and nanoluc-ns primers.
# For in vitro trans-translation, tmRNA-nl and SmpB were premixed and stored on ice. S12 lysate (2 μl), freshly made polymix buffer (2 μl)[47] (final reaction concentrations 5 mM Hepes pH 7.6, 5 mM NH4Cl, 0.5 mM CaCl2, 1.5 mm MgCl2, 1 mM DTT, 8 mm putrescene, 2 mm ATP, 2 mM GTP, 1 mM CTP, 1 mM UTP, 0.3 mM each amino acid, 3 mg/ml E. coli tRNAs), nanoluc-ns template (0.5 μl; 60 ng) and 2 µl water were mixed and incubated at 37 °C for 5 min. This solution was dispensed to tubes containing 0.5 μl of different concentrations of an inhibitor prepared in 75% acetonitrile, 25% water, and incubated at 37 °C for 5 min. The tmRNA-nl/SmpB mixture (0.5 μl each, 2 μM final) was added to each tube and the samples were incubated at 37 °C for 1.5 h. NanoLuc substrate (Promega) was prepared according to the manufacturer’s instructions, one volume of this substrate solution was added to each sample tube, and the reactions transferred to a white 96-well plate. Luminescence readings were obtained using the SpectraMax i3 microplate reader. Data analysis was performed using GraphPad Prism 8.
# [3] = Staphylococcus aureus ATCC 25923, replicates
# [4] = Staphylococcus aureus ATCC 35556, replicates
# [5] = Staphylococcus aureus BAA-1717, replicates
# [6] = Staphylococcus aureus MRSA-1094, replicates
# [7] = Staphylococcus aureus MRSA-1234547263, replicates
# [8] = Staphylococcus aureus MSSA, replicates
# [9] = Staphylococcus aureus N315, NRS-70, replicates
# [10] = Staphylococcus aureus NRS-77, replicates
# [11] = Staphylococcus aureus THC1516, replicates
# [12] = Staphylococcus aureus, ATCC25923, Staphylococcus aureus ATCC 25923, replicates, read-out: MIC
# [13] = Staphylococcus aureus, ATCC25923, strain ATCC 25923, read-out: MIC
# [14] = Staphylococcus aureus, ATCC35556, Staphylococcus aureus ATCC 35556, replicates, read-out: MIC
# [15] = Staphylococcus aureus, ATCC35556, strain ATCC 35556, read-out: MIC
# [16] = Staphylococcus aureus, BAA1717, Staphylococcus aureus BAA-1717, replicates, read-out: MIC
# [17] = Staphylococcus aureus, BAA-1717 / MRSA, strain BAA-1717, MRSA, read-out: MIC
# [18] = Staphylococcus aureus, MRSA / NRS 70, strain N315, NRS-70, MRSA, read-out: MIC
# [19] = Staphylococcus aureus, MRSA, strain MRSA-1094, MRSA, read-out: MIC
# [20] = Staphylococcus aureus, MRSA, strain MRSA-1234547263, MRSA, read-out: MIC
# [21] = Staphylococcus aureus, MRSA, strain THC1516, MRSA, read-out: MIC
# [22] = Staphylococcus aureus, MSSA, strain MSSA, read-out: MIC
# [23] = Staphylococcus aureus, NRS70, Staphylococcus aureus N315, NRS-70, replicates, read-out: MIC
# [24] = Staphylococcus aureus, NRS77, strain NRS-77, read-out: MIC
# [25] = Staphylococcus aureus, Staphylococcus aureus THC1516, replicates, read-out: MIC
# [26] = Acinetobacter baumannii ATCC 19606, replicates
# [27] = Acinetobacter baumannii, ATCC19606, Acinetobacter baumannii ATCC 19606, replicates, read-out: MIC
# [28] = Acinetobacter baumannii, ATCC19606, strain ATCC 19606, read-out: MIC
# [29] = Pseudomonas aeruginosa ATCC 27853, replicates
# [30] = Pseudomonas aeruginosa, ATCC27853, Pseudomonas aeruginosa ATCC 27853, replicates, read-out: MIC
# [31] = Pseudomonas aeruginosa, ATCC27853, strain ATCC 27853, read-out: MIC
# [32] = Klebsiella pneumoniae ATCC 13883, replicates
# [33] = Klebsiella pneumoniae, ATCC13883, strain ATCC 13883, read-out: MIC
structure (smiles),measurement,setting,value
O=C(Nc1nnc(-c2ccc(F)cc2)o1)N1CCc2ccccc2C1 [MBX-4132],MIC,Staphylococcus aureus; [3],8.46 µg/mL
same,MIC,Staphylococcus aureus; [4],4.23 µg/mL
same,MIC,Staphylococcus aureus; [5],1 µg/mL
same,MIC,Staphylococcus aureus; [6],2.11 µg/mL and 4.23 µg/mL
same,MIC,Staphylococcus aureus; [7],2.11 µg/mL and 4.23 µg/mL
same,MIC,Staphylococcus aureus; [8],2.11 µg/mL and 4.23 µg/mL
same,MIC,Staphylococcus aureus; [9],8.46 µg/mL
same,MIC,Staphylococcus aureus; [10],2.11 µg/mL and 4.23 µg/mL
same,MIC,Staphylococcus aureus; [11],0.5 µg/ml (3×) and 1 µg/ml (2×)
same,MIC,Staphylococcus aureus; [12],4.23 µg/mL
same,MIC,Staphylococcus aureus; [13],6.3 µg/mL
same,MIC,Staphylococcus aureus; [14],4.23 µg/mL
same,MIC,Staphylococcus aureus; [15],4.2 µg/mL
same,MIC,Staphylococcus aureus; [16],1 µg/mL
same,MIC,Staphylococcus aureus; [17],1 µg/mL
same,MIC,Staphylococcus aureus; [18],6.3 µg/mL
same,MIC,Staphylococcus aureus; [19],3.2 µg/mL
same,MIC,Staphylococcus aureus; [20],3.2 µg/mL
same,MIC,Staphylococcus aureus; [21],1 µg/mL
same,MIC,Staphylococcus aureus; [22],3.2 µg/mL
same,MIC,Staphylococcus aureus; [23],4.23 µg/mL
same,MIC,Staphylococcus aureus; [24],3.2 µg/mL
same,MIC,Staphylococcus aureus; [25],0.5 µg/mL
same,MIC,Acinetobacter baumannii; [26],≥34 µg/mL
same,MIC,Acinetobacter baumannii; [27],≥ 34 µg/mL
same,MIC,Acinetobacter baumannii; [28],≥ 34 µg/mL
same,MIC,Pseudomonas aeruginosa; [29],≥34 µg/mL
same,MIC,Pseudomonas aeruginosa; [30],≥ 34 µg/mL
same,MIC,Pseudomonas aeruginosa; [31],≥ 34 µg/mL
same,"Microsomal stability (t½, min) Murine","[1]; Reported value, Eurofins",>120 min
same,half-life,[1],> 120 min
same,Average MLMS t½,[1],>120 min
same,MLMS t½,[1],>120 min
same,MIC,Klebsiella pneumoniae; [32],≥34 µg/mL
same,MIC,Klebsiella pneumoniae; [33],≥ 34 µg/mL
same,Solubility,[2],100 µM
same,normalized,trans-translation; [4132] 0.01,102.817 and 102.626 and 90.8451
same,background subtraction,trans-translation; [4132] 0.05,284
same,raw luminescence read (rlu),trans-translation; [4132] 0.05,319 rlu
same,normalized,trans-translation; [4132] 0.05,66.6667
same,background subtraction,trans-translation; [4132] 0.1,337 and 425 and 284
same,raw luminescence read (rlu),trans-translation; [4132] 0.1,443 rlu and 372 rlu and 319 rlu
same,normalized,trans-translation; [4132] 0.1,59.331 and 41.3424 and 66.6667
same,background subtraction,trans-translation; [4132] 0.5,266 and 178
same,raw luminescence read (rlu),trans-translation; [4132] 0.5,301 rlu and 213 rlu
same,normalized,trans-translation; [4132] 0.5,46.831 and 41.784
same,background subtraction,trans-translation; [4132] 1,213 and 266 and 426
same,raw luminescence read (rlu),trans-translation; [4132] 1,248 rlu and 284 rlu and 461 rlu
same,background subtraction,trans-translation; [4132] 2,302 and 230
same,raw luminescence read (rlu),trans-translation; [4132] 2,337 rlu and 248 rlu
same,IC50,trans-translation,400 nM
"O=C(Nc1nnc(-c2ccc(F)cc2)o1)c1ccc(Cl)cc1 [KKL-35, 4-chloro-N-(5-(4-fluorophenyl)-1,3,4-oxadiazol-2-yl)benzamide]",MIC,Staphylococcus aureus; [3],1 µg/mL
same,MIC,Staphylococcus aureus; [4],1 µg/mL
same,MIC,Staphylococcus aureus; [5],1 µg/mL
same,MIC,Staphylococcus aureus; [6],1 µg/mL
same,MIC,Staphylococcus aureus; [7],1 µg/mL
same,MIC,Staphylococcus aureus; [8],1 µg/mL
same,MIC,Staphylococcus aureus; [9],1 µg/mL
same,MIC,Staphylococcus aureus; [10],1 µg/mL
same,MIC,Staphylococcus aureus; [11],1 µg/ml (4×) and 0.5 µg/ml
same,MIC,Staphylococcus aureus; [12],1 µg/mL
same,MIC,Staphylococcus aureus; [13],1 µg/mL
same,MIC,Staphylococcus aureus; [14],1 µg/mL
same,MIC,Staphylococcus aureus; [15],1 µg/mL
same,MIC,Staphylococcus aureus; [16],1 µg/mL
same,MIC,Staphylococcus aureus; [17],1 µg/mL
same,MIC,Staphylococcus aureus; [18],1 µg/mL
same,MIC,"Staphylococcus aureus; Staphylococcus aureus, MRSA, Staphylococcus aureus MRSA-1094, replicates, read-out: MIC",1 µg/mL
same,MIC,"Staphylococcus aureus; Staphylococcus aureus, MRSA, Staphylococcus aureus MRSA-1234547263, replicates, read-out: MIC",1 µg/mL
same,MIC,Staphylococcus aureus; [19],1 µg/mL
same,MIC,Staphylococcus aureus; [20],1 µg/mL
same,MIC,Staphylococcus aureus; [21],0.9 µg/mL
same,MIC,"Staphylococcus aureus; Staphylococcus aureus, MSSA, Staphylococcus aureus MSSA, replicates, read-out: MIC",1 µg/mL
same,MIC,Staphylococcus aureus; [22],1 µg/mL
same,MIC,Staphylococcus aureus; [23],1 µg/mL
same,MIC,"Staphylococcus aureus; Staphylococcus aureus, NRS77, Staphylococcus aureus NRS-77, replicates, read-out: MIC",1 µg/mL
same,MIC,Staphylococcus aureus; [24],1 µg/mL
same,MIC,Staphylococcus aureus; [25],1 µg/mL
same,MIC,Acinetobacter baumannii; [26],≥32 µg/mL
same,MIC,Acinetobacter baumannii; [27],≥ 32 µg/mL
same,MIC,Acinetobacter baumannii; [28],> 32 µg/mL
same,MIC,Pseudomonas aeruginosa; [29],≥32 µg/mL
same,MIC,Pseudomonas aeruginosa; [30],≥ 32 µg/mL
same,MIC,Pseudomonas aeruginosa; [31],> 32 µg/mL
same,liver microsome stability (in words),[1],rapidly hydrolyzed
same,half-life,[1],< 5 min
same,Average MLMS t½,[1],<5 min
same,MLMS t½,[1],<5 min
same,MIC,Klebsiella pneumoniae; [32],≥32 µg/mL
same,MIC,Klebsiella pneumoniae; [33],≥ 32 µg/mL
same,Solubility,[2],6.3 µM
same,IC50,trans-translation,400 nM

# From paper PMC7979765, “trans-Translation inhibitors bind to a novel site on the ribosome and clear Neisseria gonorrhoeae in vivo” (Nature Communications, 2021)
